Publication PMC4673935, “Synthesis, Antiplatelet Activity and Cytotoxicity Assessment of Indole-Based Hydrazone Derivatives” (Iranian Journal of Pharmaceutical Research : IJPR, 2015)
Where two headings read alike, the source gives them in different places.

Experiments:
[1] = test system: human platelet rich plasma (PRP), arachidonic acid-induced platelet aggregation; experiment: Arachidonic acid-induced platelet aggregation in human platelet rich plasma (Born turbidimetric method); assay type: cell-based; details: inducer arachidonic acid 1.25 mg/mL; for IC50: Platelet, read-out: Antiplatelet aggregation activity, IC50, AA
Description: (§1) The in vitro antiplatelet activity of the derivatives was evaluated using human platelet rich plasma (PRP)on an APACT 4004 aggregometerby Born’s reported turbidimetric method([16]). ADP (5 µM), arachidonic acid (1.25 mg/mL) and collagen (5 µM) were used as inducers of platelet aggregation. IC50 was defined as the concentration of the test compound that inhibits the platelet aggregation by 50%. The detailed procedure has been described in our previous works([11],[12],[17]).

[2] = test system: human platelet rich plasma (PRP), collagen-induced platelet aggregation; experiment: Collagen-induced platelet aggregation in human platelet rich plasma (Born turbidimetric method); assay type: cell-based; details: inducer collagen (5 µM); for IC50: Platelet, read-out: Antiplatelet aggregation activity, IC50, Collagen
Description: as §1

[3] = test system: human platelet rich plasma (PRP), ADP-induced platelet aggregation; experiment: ADP-induced platelet aggregation in human platelet rich plasma (Born turbidimetric method); assay type: cell-based; details: inducer ADP 5 µM, read-out: Antiplatelet aggregation activity, IC50, ADP
Description: as §1

[4] = Cytotoxicity assay, MTT method; assay type: cell-based; details: mouse, fibroblast L929 cell line, 24 h of exposure
Description: (§2) The synthesized derivatives were assayed for their toxicity on Fibroblast L929 cell line by MTT [[…]] method. The compounds were initially screened at 100 µM concentration and IC50 was calculated for those showing more than 50% toxicity. The detailed procedure has been described in our previous work([18]).

[5] = test system: Fibroblast L929 cell line; experiment: Cytotoxicity assay, MTT method; assay type: cell-based; details: 24 h of exposure
Description: as §2

[6] = test system: human platelet rich plasma (PRP), arachidonic acid-induced platelet aggregation; set-up: method as in PMID 23154304; details: inducer arachidonic acid, obtained in previous study, read-out: Antiplatelet aggregation activity, IC50, AA; cited from earlier work
[7] = test system: human platelet rich plasma (PRP), ADP-induced platelet aggregation; set-up: method as in PMID 23154304; details: inducer ADP, obtained in previous study, read-out: Antiplatelet aggregation activity, IC50, ADP; cited from earlier work

Structure (SMILES) | IC50 [1] [µM] | IC50 [2] [µM] | IC50 [3] [µM] | IC50 at 24 h ([4]; L929 fibroblast cells) [µM] | Cytotoxicity, IC50 [5] | melting point | Antiplatelet aggregation activity, IC50, AA [1] | Antiplatelet aggregation activity, IC50, Collagen [2] | IC50 at 24 h [4] [µM] | IC50 [6] [µM] | IC50 [7] [µM]
COc1ccc2c(c1)c(CC(=O)O)c(C)n2C(=O)c1ccc(Cl)cc1 [Indometacin, reference compound] | 3 | 1.5 | > 100 |  |  |  |  |  |  |  | 
O=C(N/N=C/c1c[nH]c2ccc(Cl)cc12)c1ccc(Cl)cc1 [3c] | > 100 | > 100 | > 100 | 71.3 |  |  |  |  |  |  | 
Fc1ccc(N/N=C/c2c[nH]c3ccccc23)cc1 [1b] | 28.8 | > 100 | > 100 | > 100 | not toxic to fibroblast cells |  |  |  |  |  | 
O=C(NN=Cc1c[nH]c2ccc(Cl)cc12)c1cccc(Cl)c1 [3b, 5-Chloroindole-3-carboxaldehyde 3-chlorobenzoylhydrazone] | > 100 | > 100 | > 100 | 55.5 |  | 230 to 233 °C |  |  |  |  | 
O=C(NN=Cc1c[nH]c2ccccc12)c1ccc([N+](=O)[O-])cc1 [2d, Indole-3-carboxaldehyde 4-nitrobenzoylhydrazone] | > 100 | > 100 | > 100 | > 100 |  | 250 to 253 °C |  |  |  |  | 
O=C(NN=Cc1c[nH]c2ccccc12)c1ccc(Cl)cc1 [2c, Indole-3-carboxaldehyde 4-chlorobenzoylhydrazone] | > 100 | > 100 | > 100 | > 100 |  |  |  |  |  |  | 
O=C(N/N=C/c1c[nH]c2ccc(Cl)cc12)c1ccccc1 [3a] | > 100 | > 100 | > 100 | > 100 |  |  |  |  |  |  | 
Clc1ccccc1NN=Cc1c[nH]c2ccccc12 [1c, Indole-3-carboxaldehyde 2-chlorophenylhydrazone] | 14.6 | 85.6 | > 100 | 45.9 |  |  | still acceptable |  |  |  | 
Cc1ccc(C(=O)NN=Cc2c[nH]c3ccccc23)cc1 [2f, Indole-3-carboxaldehyde 4-methylbenzoylhydrazone] | > 100 | > 100 | > 100 | > 100 |  | > 270 °C |  |  |  |  | 
Clc1ccc(N/N=C/c2c[nH]c3ccccc23)cc1 [1e] | 22.5 | 62.5 | > 100 |  |  |  |  | moderate activity | 66.7 |  | 
O=C(NN=Cc1c[nH]c2ccccc12)c1cccc(Cl)c1 [2b, Indole-3-carboxaldehyde 3-chlorobenzoylhydrazone] | > 100 | > 100 | > 100 | > 100 |  | 215 to 218 °C |  |  |  |  | 
C(=NNc1ccccc1)c1c[nH]c2ccccc12 [1a, indole-3-carboxaldehyde phenylhydrazone] |  | 38.8 |  | > 100 | not toxic to fibroblast cells |  |  | moderate activity |  | 10 | > 100
Cc1ccccc1NN=Cc1c[nH]c2ccccc12 [1g, Indole-3-carboxaldehyde 2-methylphenylhydrazone] | 56.8 | 75.2 | > 100 | 85.1 |  | 176 to 178 °C |  | moderate activity |  |  | 
CC(=O)Oc1ccccc1C(=O)O [Aspirin, reference compound] | 30.3 | 9.7 | > 100 |  |  |  |  |  |  |  | 
Cc1ccc(C(=O)NN=Cc2c[nH]c3ccc(Cl)cc23)cc1 [3f, 5-Chloroindole-3-carboxaldehyde 4-methylbenzoylhydrazone] | > 100 | > 100 | > 100 | 62.7 |  | 244 °C (dec.) |  |  |  |  | 
Clc1cccc(NN=Cc2c[nH]c3ccccc23)c1 [1d, Indole-3-carboxaldehyde 3-chlorophenylhydrazone] | 28.1 | > 100 | > 100 |  |  | 211 to 214 °C |  |  | 33.9 |  | 
O=C(N/N=C/c1c[nH]c2ccccc12)c1ccncc1 [2g] |  | > 100 |  | > 100 |  |  |  |  |  | > 100 | > 100
Cc1cccc(C(=O)NN=Cc2c[nH]c3ccc(Cl)cc23)c1 [3e, 5-Chloroindole-3-carboxaldehyde 3-methylbenzoylhydrazone] | > 100 | > 100 | > 100 | 49.6 |  | 226 to 228 °C |  |  |  |  | 
Cc1cccc(C(=O)NN=Cc2c[nH]c3ccccc23)c1 [2e, Indole-3-carboxaldehyde 3-methylbenzoylhydrazone] | > 100 | > 100 | > 100 | > 100 |  | 212 to 214 °C |  |  |  |  | 
Cc1ccc(NN=Cc2c[nH]c3ccccc23)cc1 [1h, Indole-3-carboxaldehyde 4-methylphenylhydrazone] | 57.2 | > 100 | > 100 | > 100 | not toxic to fibroblast cells |  |  |  |  |  | 
O=C(NN=Cc1c[nH]c2ccc(Cl)cc12)c1ccc([N+](=O)[O-])cc1 [3d, 5-Chloroindole-3-carboxaldehyde 4-nitrobenzoylhydrazone] | > 100 | > 100 | > 100 | > 100 |  | > 270 °C |  |  |  |  | 
COc1ccc(NN=Cc2c[nH]c3ccccc23)cc1 [1i, Indole-3-carboxaldehyde 4-methoxyphenylhydrazone] | 7.13 | > 100 | > 100 | 74.5 |  |  |  |  |  |  | 
O=C(NN=Cc1c[nH]c2ccccc12)c1ccccc1 [2a, Indole-3-carboxaldehyde benzoylhydrazone] | > 100 | > 100 | > 100 | > 100 |  | 238 to 241 °C |  |  |  |  | 
O=C(NN=Cc1c[nH]c2ccc(Cl)cc12)c1ccncc1 [3g, 5-Chloroindole-3-carboxaldehyde isonicotinoylhydrazone] | > 100 | > 100 | > 100 | > 100 |  | > 270 °C |  |  |  |  | 
Brc1ccc(N/N=C/c2c[nH]c3ccccc23)cc1 [1f] | 21.2 | > 100 | 100 | 59.8 |  |  | still acceptable |  |  |  | 
